Results on 33 compounds are retold here after patent US10434112B2, “Use of agonists of formyl peptide receptor 2 for treating dermatological diseases” (Allergan, Inc., priority 2013, dated 2019).

Where only a bound is given, the exact number is not on record here.

Sequence of human FPR2 receptor (P25090 whole entry): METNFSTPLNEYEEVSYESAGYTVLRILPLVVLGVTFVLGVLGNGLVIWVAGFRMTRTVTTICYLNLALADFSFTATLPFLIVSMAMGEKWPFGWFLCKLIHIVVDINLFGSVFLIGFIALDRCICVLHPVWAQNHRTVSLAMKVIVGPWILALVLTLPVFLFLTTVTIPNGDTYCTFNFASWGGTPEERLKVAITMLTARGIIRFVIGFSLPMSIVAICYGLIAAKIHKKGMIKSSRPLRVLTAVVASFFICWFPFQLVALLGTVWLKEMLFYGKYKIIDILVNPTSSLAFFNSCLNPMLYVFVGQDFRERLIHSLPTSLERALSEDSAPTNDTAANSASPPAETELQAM

The first experiment has as its target human FPR2 receptor (Homo sapiens (Human), UniProt P25090). Nature of the experiment: FLIPR Ca+2 response in HEK-Gα16 cells stably expressing the human FPR2 receptor. In kind it is cell-based. Further details: FPR2 (% eff): unit not given here. The note with it: Table 4. In a few lines: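 HEK-Gα16 cells stably expressing human FPR2, loaded with 2 μM Fluo-4 in HBSS/20 mM HEPES for 40 min at 37° C., then washed. Ligands added in HBSS/Hepes and Ca+2 responses recorded on FLIPR in relative fluorescence units.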
Regarding `CC1(CCc2ccccc2F)NC(=O)N(NC(=O)Nc2ccc(Br)cc2)C1=O` (stereo not drawn) [Compound 80, 1-(4-bromophenyl)-3-{4-[2-(2-fluorophenyl)ethyl]-4-methyl-2,5-dioxoimidazolidin-1-yl}urea], the response was half-maximal at 14.3 nM (EC50).
As for `CC[C@H](C)[C@H](NC(=O)Nc1ccc(Br)cc1F)C(=O)NCC(N)=O` [Compound 62, (2S,3S)-N-(2-amino-2-oxoethyl)-2-{[(4-bromo-2-fluorophenyl)carbamoyl]amino}-3-methylpentanamide], the concentration for a half-maximal effect (EC50) was 10.3 nM.
`NC(=O)C1C(C(=O)Nc2ccc(Br)cc2)C2CCC1C21CC1` (single isomer, unassigned; (-)) [Compound 45, (−) N-(4-bromophenyl)spiro[bicyclo [2.2.1]heptane-7,1′-cyclopropane]-2,3-dicarboxamide] showed an EC50 of under 1 nM.
The same measure, in the same setting: the same measure for `CSc1ccc(NC(=O)N[C@@H](CC(C)C)C(=O)NCC(=O)O)cc1` [Compound 130, {[(2S)-4-methyl-2-({[4-(methylsulfanyl)phenyl]carbamoyl}amino)pentanoyl]amino}acetic acid]: 3 nM.
Consider `CSc1ccc(NC(=O)C2C(C(=O)O)C3CCC2C32CC2)cc1` (stereo not drawn) [Compound 29, 3-{[4-(methylsulfanyl)phenyl]carbamoyl}spiro[bicyclo[2.2.1]heptane-7,1′-cyclopropane]-2-carboxylic acid], for which the EC50 worked out at 7 nM.
Same read-out and setting: for `CC(C)C[C@H](NC(=O)Nc1ccc(Br)cc1)C(=O)NCC(N)=O` [Compound 77, (2S)-N-(2-amino-2-oxoethyl)-2-{[(4-bromophenyl)carbamoyl]amino}-4-methylpentanamide] the value was 1.1 nM.

Staying with this experiment, now noted: Table 4; value in brackets, given mostly as fraction.
On to `CCOP(=O)(O)CNC(=O)[C@@H](NC(=O)Nc1ccc(Br)cc1)[C@@H](C)CC` [Compound 115, ethyl hydrogen ({[(2S,3S)-2-{[(4-bromophenyl)carbamoyl]amino}3-methylpentanoyl]amino}methyl)phosphonate], for which the “FPR2 (% eff)” value came out at 0.88.
Turning to `CCOP(=O)(CNC(=O)[C@H](CC(C)C)NC(=O)Nc1ccc(SC)cc1)OCC` [Compound 138, diethyl ({[(2S)-4-methyl-2-({[4-(methylsulfanyl)phenyl]carbamoyl}amino)pentanoyl]amino}methyl)phosphonate], the “FPR2 (% eff)” value is recorded as 0.91.
Regarding `CCOP(=O)(CNC(=O)[C@H](CC(C)C)NC(=O)Nc1ccc(C(F)(F)F)cc1)OCC` [Compound 134, diethyl ({[(2S)-4-methyl-2-({[4-(trifluoromethyl)phenyl]carbamoyl}amino)pentanoyl]amino}methyl)phosphonate], the “FPR2 (% eff)” value is listed as 0.97.
Still for that read-out and setting: for `CCOP(=O)(O)CNC(=O)[C@H](CC(C)C)NC(=O)Nc1ccc(C(F)(F)F)cc1` [Compound 135, ethyl hydrogen ({[(2S)-4-methyl-2-({[4-(trifluoromethyl)phenyl]carbamoyl}amino)pentanoyl]amino}methyl)phosphonate] the value was 0.91.
Take `CC(C)C[C@H](NC(=O)Nc1ccc(C(F)(F)F)cc1)C(=O)NC(C)(C)C(=O)O` [Compound 139, 2-methyl-2-{[(2S)-4-methyl-2-({[4-(trifluoromethyl)phenyl]carbamoyl}amino)pentanoyl]amino}propanoic acid]: the “FPR2 (% eff)” value is listed as 0.92.
On to `CCC1(CCc2ccccc2C(=O)OC)NC(=O)N(NC(=O)Nc2ccc(Br)cc2)C1=O` (stereo not drawn) [Compound 141, methyl 2-[2-(1-{[(4-bromophenyl)carbamoyl]amino}-4-ethyl-2,5-dioxoimidazolidin-4-yl)ethyl]benzoate], for which the “FPR2 (% eff)” value is listed as 0.92.
On to `CC(C)C1(CC(=O)NC(CO)CO)NC(=O)N(NC(=O)Nc2ccc(Br)cc2)C1=O` (stereo not drawn) [Compound 142, 2-[1-{[(4-bromophenyl)carbamoyl]amino}-2,5-dioxo-4-(propan-2-yl)imidazolidin-4-yl]-N-(1,3-dihydroxypropan-2-yl)acetamide], for which the “FPR2 (% eff)” value was determined as 0.92.
Still for that read-out and setting: the same measure for `CC(C)CC(C)(NC(=O)Nc1ccc(Br)cc1)C(=O)NCC(=O)O` (stereo not drawn) [Compound 111, [(2-{[(4-bromophenyl)carbamoyl]amino}-2,4-dimethylpentanoyl)amino] acetic acid]: 0.99; for `CC1(CCc2cccs2)NC(=O)N(NC(=O)Nc2ccc(Br)cc2)C1=O` (stereo not drawn) [Compound 88, 1-(4-bromophenyl)-3-{4-methyl-2,5-dioxo-4-[2-(thiophen-2-yl)ethyl]imidazolidin-1-yl}urea]: 0.94.
For the compound `CC(C)C[C@H](NC(=O)Nc1ccc(Br)cc1)C(=O)NCCO` [Compound 75, (2S)-2-{[(4-bromophenyl)carbamoyl]amino}-N-(2-hydroxyethyl)-4-methylpentanamide], the “FPR2 (% eff)” value is given as 0.76.
Take `CCOP(=O)(CNC(=O)[C@@H](NC(=O)Nc1ccc(Br)cc1)[C@@H](C)CC)OCC` [Compound 114, diethyl ({[(2S,3S)-2-{[(4-bromophenyl)carbamoyl]amino}-3-methylpentanoyl]amino}methyl)phosphonate]: the “FPR2 (% eff)” value was found to be 1.0.
For `CC1(CCc2ccccc2F)NC(=O)N(NC(=O)Nc2ccc(Br)cc2)C1=O` (stereo not drawn) [Compound 80, 1-(4-bromophenyl)-3-{4-[2-(2-fluorophenyl)ethyl]-4-methyl-2,5-dioxoimidazolidin-1-yl}urea], the “FPR2 (% eff)” value is on record as 99.
The same measure, in the same setting: for `CC1(CCc2ccc(O)cc2)NC(=O)N(NC(=O)Nc2ccc(Br)cc2)C1=O` (stereo not drawn) [Compound 86, 1-(4-bromophenyl)-3-{4-[2-(4-hydroxyphenyl)ethyl]-4-methyl-2,5-dioxoimidazolidin-1-yl}urea] the value was 1.0; for `O=C(O)CCNC(=O)[C@H](Cc1ccccc1)NC(=O)Nc1ccc(Br)cc1` [Compound 56, 3-{[(2S)-2-{[(4-bromophenyl)carbamoyl]amino}-3-phenylpropanoyl]amino} propanoic acid], 0.98; for `CC[C@H](C)[C@H](NC(=O)Nc1ccc(Br)cc1)C(=O)NCC(N)=O` [Compound 60, (2S,3S)-N-(2-amino-2-oxoethyl)-2-{[(4-bromophenyl)carbamoyl]amino}-3-methylpentanamide], 0.91.
As to `CC(C)NC(=O)C1C(C(=O)Nc2ccc(Br)cc2)C2CCC1C21CC1` (stereo not drawn) [Compound 48, N-(4-bromophenyl)-N′-(propan-2-yl)spiro[bicyclo[2.2.1]heptane-7,1′-cyclopropane]-2,3-dicarboxamide], the “FPR2 (% eff)” value came to 1.0.
`CC(C)C[C@H](NC(=O)Nc1ccc(Br)cc1F)C(=O)NCC(N)=O` [Compound 84, (2S)-N-(2-amino-2-oxoethyl)-2-{[(4-bromo-2-fluorophenyl)carbamoyl]amino}-4-methylpentanamide]: the “FPR2 (% eff)” value is reported as 0.95.
In turn, `CC[C@H](C)[C@H](NC(=O)Nc1ccc(Br)cc1F)C(=O)NCC(N)=O` [Compound 62, (2S,3S)-N-(2-amino-2-oxoethyl)-2-{[(4-bromo-2-fluorophenyl)carbamoyl]amino}-3-methylpentanamide] showed an FPR2 (% eff) of 100.
Take `NC(=O)C1C(C(=O)Nc2ccc(Br)cc2)C2CCC1C21CC1` (single isomer, unassigned; (-)) [Compound 45, (−) N-(4-bromophenyl)spiro[bicyclo [2.2.1]heptane-7,1′-cyclopropane]-2,3-dicarboxamide]: the “FPR2 (% eff)” value is listed as 0.91.
As for `CC(C)C1(CC(=O)NCCC(=O)O)NC(=O)N(NC(=O)Nc2ccc(Br)cc2F)C1=O` (stereo not drawn) [Compound 145, 3-({[1-{[(4-bromo-2-fluorophenyl)carbamoyl]amino}-2,5-dioxo-4-(propan-2-yl)imidazolidin-4-yl]acetyl}amino)propanoic acid], the “FPR2 (% eff)” value is recorded as 1.0.
`CSc1ccc(NC(=O)N[C@@H](CC(C)C)C(=O)NCC(=O)O)cc1` [Compound 130, {[(2S)-4-methyl-2-({[4-(methylsulfanyl)phenyl]carbamoyl}amino)pentanoyl]amino}acetic acid]: the “FPR2 (% eff)” value is on record as 1.0.
In the case of `CC(=O)CNC(=O)[C@H](CC(C)C)NC(=O)Nc1ccc(Br)cc1F` [Compound 85, (2S)-2-{[(4-bromo-2-fluorophenyl)carbamoyl]amino}-4-methyl-N-(2-oxopropyl)pentanamide], the “FPR2 (% eff)” value is recorded as 0.99.
For `O=C(O)C1C(C(=O)Nc2ccc(I)cc2)C2C=CC1C21CC1` (stereo not drawn) [Compound 11, 3-[(4-iodophenyl)carbamoyl]spiro [bicyclo[2.2.1]heptane-7,1′-cyclopropane]-5-ene-2-carboxylic acid], the “FPR2 (% eff)” value is listed as 1.00.
For the compound `CSc1ccc(NC(=O)C2C(C(=O)O)C3CCC2C32CC2)cc1` (stereo not drawn) [Compound 29, 3-{[4-(methylsulfanyl)phenyl]carbamoyl}spiro[bicyclo[2.2.1]heptane-7,1′-cyclopropane]-2-carboxylic acid], the “FPR2 (% eff)” value came to 0.96.
As to `CC1(CCc2cccc(F)c2)NC(=O)N(NC(=O)Nc2ccc(Br)cc2)C1=O` (stereo not drawn) [Compound 83, 1-(4-bromophenyl)-3-{4-[2-(3-fluorophenyl)ethyl]-4-methyl-2,5-dioxoimidazolidin-1-yl}urea], the “FPR2 (% eff)” value turned out to be 1.0.
For `CC1(CCc2cccc(O)c2)NC(=O)N(NC(=O)Nc2ccc(Br)cc2F)C1=O` (stereo not drawn) [Compound 107, 1-(4-bromo-2-fluorophenyl)-3-{4-[2-(3-hydroxyphenyl)ethyl]-4-methyl-2,5-dioxoimidazolidin-1-yl}urea], the “FPR2 (% eff)” value came to 0.79.
Regarding `CC(C)C[C@H](NC(=O)Nc1ccc(Br)cc1)C(=O)NC(C)(C)C(=O)O` [Compound 6, 2-{[(2S)-2-{[(4-bromophenyl)carbamoyl]amino}-4-methylpentanoyl]amino}-2-methylpropanoic acid], the “FPR2 (% eff)” value amounted to 0.91.
`CC(C)C[C@H](NC(=O)Nc1ccc(Br)cc1)C(=O)NCC(N)=O` [Compound 77, (2S)-N-(2-amino-2-oxoethyl)-2-{[(4-bromophenyl)carbamoyl]amino}-4-methylpentanamide]: the “FPR2 (% eff)” value amounted to 1.0.
As for `CCC[C@H](NC(=O)Nc1ccc(Br)cc1F)C(=O)NCC(N)=O` [Compound 81, (2S)-N-(2-amino-2-oxoethyl)-2-{[(4-bromo-2-fluorophenyl)carbamoyl]amino} pentanamide], the “FPR2 (% eff)” value was found to be 0.96.
Turning to `N#Cc1ccc(C2Cc3ccc(NC(=O)Nc4ccc(I)cc4)cc3C(=O)N2CCCN)cc1` (stereo not drawn) [Compound 43, 1-[2-(3-aminopropyl)-3-(4-cyanophenyl)-1-oxo-1,2,3,4-tetrahydroisoquinolin-7-yl]-3-(4-iodophenyl)urea], the “FPR2 (% eff)” value was found to be 0.94.
As to `CSc1ccc(NC(=O)Nc2ccc3c(c2)C(=O)N(CCc2c[nH]cn2)C(c2ccc(Cl)o2)C3)cc1` (stereo not drawn) [Compound 27, 1-{3-(5-chlorofuran-2-yl)-2-[2-(1H-imidazol-4-yl)ethyl]-1-oxo-1,2,3,4-tetrahydroisoquinolin-7-yl}-3-[4-(methylsulfanyl)phenyl]urea], the “FPR2 (% eff)” value was found to be 0.81.
The same measure, in the same setting: for `CSc1ccc(NC(=O)Nc2ccc3c(c2)C(=O)N(CCc2c[nH]cn2)C(c2ccc(C#N)cc2)C3)cc1` (stereo not drawn) [Compound 17, 1-{3-(4-cyanophenyl)-2-[2-(1H-imidazol-4-yl)ethyl]-1-oxo-1,2,3,4-tetrahydroisoquinolin-7-yl}-3-[4-(methylsulfanyl)phenyl]urea] the value was 0.92; for `CSc1ccc(NC(=O)N[C@@H](CC(C)C)C(=O)O)cc1` [Compound 128, (2S)-4-methyl-2-({[4-(methylsulfanyl)phenyl]carbamoyl}amino)pentanoic acid], 0.92.

The term EC50 denotes the concentration giving half of the maximal effect.
